Source: patent US11680060B2, “Bicycloheptane pyrrolidine orexin receptor agonists” (Merck Sharp & Dohme LLC, priority 2020, dated 2023)
Read-outs that look alike come from different tables or passages of the source.

Target: human OX2R (Homo sapiens (Human), UniProt O43614)
Assay: IPOne (IP-1) assay in CHO cells expressing human OX2R
Type: cell-based
Details: for Emax: CHO; for IC50: CHO cells expressing human OX2R, IP-One detection, 2 hours incubation, EC50 = inflection point of four parameter logistic fit, read-out: hOX2R_IP_IC50
How it was run: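 CHO cells stably expressing human OX2R were stimulated with compound (10-point ½-log dilutions) for 2 h at 37 °C. IP-1 accumulation was read by HTRF (IP-One, 665/620 nm). EC50 from a four-parameter fit; % effect relative to 1 μM reference agonist control.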

[1] = percentage of mean max effect of a reference compound at 1 uM (100% activity by comparison to Orexin A), human OX2R, read-out: Emax (%)
[2] = percentage of mean max effect of a reference compound at 1 uM (100% activity by comparison to Orexin A), human OX2R

human OX2R, sequence (O43614 whole entry): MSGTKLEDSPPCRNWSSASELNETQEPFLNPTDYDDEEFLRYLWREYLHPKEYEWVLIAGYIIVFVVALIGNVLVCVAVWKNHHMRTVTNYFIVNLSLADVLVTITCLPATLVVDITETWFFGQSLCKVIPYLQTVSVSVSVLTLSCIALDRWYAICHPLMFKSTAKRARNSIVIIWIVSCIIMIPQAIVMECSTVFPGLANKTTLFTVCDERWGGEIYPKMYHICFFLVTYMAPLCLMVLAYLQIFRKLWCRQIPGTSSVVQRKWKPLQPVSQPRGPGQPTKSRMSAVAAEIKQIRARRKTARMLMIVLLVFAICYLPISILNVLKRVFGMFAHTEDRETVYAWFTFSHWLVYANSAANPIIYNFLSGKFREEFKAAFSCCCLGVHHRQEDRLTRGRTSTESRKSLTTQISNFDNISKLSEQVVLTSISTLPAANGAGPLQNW

## C[C@@H]1C[C@H](NS(C)(=O)=O)[C@H](CO[C@H]2CC[C@@]3(c4ncc(F)cn4)C[C@H]3C2)N1C(=O)OC[C@H]1C[C@H]1F [Example 51, ((1R,2R)-2-fluorocyclopropyl)methyl (2R,3S,5R)-2-((((1S,3S,6R)-6-(5-fluoropyrimidin-2-yl)bicyclo[4.1.0]heptan-3-yl)oxy)methyl)-5-methyl-3-(methylsulfonamido)pyrrolidine-1-carboxylate]
[1]
  Emax: 102%

## COC(=O)N1[C@H](C)C[C@H](NS(C)(=O)=O)[C@@H]1CO[C@H]1CC[C@@]2(c3ncccn3)C[C@H]2C1 (single isomer, unassigned) [Example 19]
[2]
  Emax (%): 100.9%

## CC(C)OC(=O)N1[C@H](C)C[C@H](NS(=O)(=O)N(C)C)[C@@H]1COC1CCC2(c3ncccn3)CC2C1 (stereo partly drawn) [Example 8, isopropyl (2R,3S,5R)-3-((N,N-dimethylsulfamoyl)amino)-5-methyl-2-(((6-(pyrimidin-2-yl)bicyclo[4.1.0]heptan-3-yl)oxy)methyl)pyrrolidine-1-carboxylate]
[2]
  Emax (%): 95.4%

## COC(=O)N1[C@H](C)C[C@H](NS(C)(=O)=O)[C@@H]1CO[C@@H]1CC[C@]2(c3ncc(F)cn3)C[C@@H]2C1 [Example 136, methyl (2R,3S,5R)-2-((((1R,3R,6S)-6-(5-fluoropyrimidin-2-yl)bicyclo[4.1.0]heptan-3-yl)oxy)methyl)-5-methyl-3-(methylsulfonamido)pyrrolidine-1-carboxylate]
[1]
  Emax: 101%

## CC(C)OC(=O)N1[C@H](C)C[C@H](NS(=O)(=O)N(C)C)[C@@H]1CO[C@H]1CC[C@@]2(c3ncc(F)cn3)C[C@H]2C1 (single isomer, unassigned) [Example 161]
  IC50: 0.0008 µM
[1]
  Emax: 102%

## CC(C)OC(=O)N1[C@H](C)C[C@H](NS(=O)(=O)CF)[C@@H]1CO[C@@H]1CC[C@]2(c3ncc(Br)cn3)C[C@@H]2C1 (single isomer, unassigned) [Example 104]
  IC50: 0.0345 µM
[1]
  Emax: 102%

## COC(=O)N1[C@H](C)C[C@H](NS(=O)(=O)N(C)C)[C@@H]1COC1CCC2(c3cnccn3)CC2C1 (single isomer, unassigned) [Example 11]
[1]
  Emax: 96.1%

## COC(=O)N1[C@H](C)C[C@H](NS(=O)(=O)C2COC2)[C@@H]1CO[C@H]1CC[C@@]2(c3ncc(F)cn3)C[C@H]2C1 [Example 40, methyl (2R,3S,5R)-2-((((1S,3S,6R)-6-(5-fluoropyrimidin-2-yl)bicyclo[4.1.0]heptan-3-yl)oxy)methyl)-5-methyl-3-(oxetane-3-sulfonamido)pyrrolidine-1-carboxylate]
[1]
  Emax: 102%

## COC(=O)N1[C@H](C)C[C@H](NS(=O)(=O)N2CCC2)[C@@H]1CO[C@H]1CC[C@@]2(c3ncc(F)cn3)C[C@H]2C1 [Example 39, methyl (2R,3S,5R)-3-(azetidine-1-sulfonamido)-2-((((1S,3S,6R)-6-(5-fluoropyrimidin-2-yl)bicyclo[4.1.0]heptan-3-yl)oxy)methyl)-5-methylpyrrolidine-1-carboxylate]
[1]
  Emax: 103%

## COC(=O)N1[C@H](C)C[C@H](NS(C)(=O)=O)[C@@H]1COC1CCC2(c3ncccn3)CC2C1 (stereo partly drawn) [Example 184, methyl (2R,3S,5R)-5-methyl-3-(methylsulfonamido)-2-(((6-(pyrimidin-2-yl)bicyclo[4.1.0]heptan-3-yl)oxy)methyl)pyrrolidine-1-carboxylate]
[1]
  Emax: 102%

## COC(=O)N1[C@H](C)C[C@H](NS(C)(=O)=O)[C@@H]1COC1CCC2(c3ncc(OC(F)F)c(C)n3)CC2C1 (stereo partly drawn) [Example 75, methyl (2R,3S,5R)-2-(((6-(5-(difluoromethoxy)-4-methylpyrimidin-2-yl)bicyclo[4.1.0]heptan-3-yl)oxy)methyl)-5-methyl-3-(methylsulfonamido)pyrrolidine-1-carboxylate]
[1]
  Emax: 89.5%

## COC(=O)N1CC[C@H](NS(C)(=O)=O)[C@@H]1CO[C@@H]1CC[C@]2(c3ncccn3)C[C@@H]2C1 (single isomer, unassigned) [Example 176]
  IC50: 2.03 µM
[1]
  Emax: 94.7%

## COC(=O)N1[C@H](C)C[C@H](NS(C)(=O)=O)[C@@H]1COC1CCC2(c3ncc(Cl)c(OC)n3)CC2C1 (stereo partly drawn) [Example 70, methyl (2R,3S,5R)-2-(((6-(5-chloro-4-methoxypyrimidin-2-yl)bicyclo[4.1.0]heptan-3-yl)oxy)methyl)-5-methyl-3-(methylsulfonamido)pyrrolidine-1-carboxylate]
  Emax: 101%
  IC50: 0.0335 µM

## COC(=O)N1[C@H](C)C[C@H](NS(C)(=O)=O)[C@@H]1COC1CCC2(c3ncc(F)c(C)n3)CC2C1 (stereo partly drawn) [Example 77, methyl (2R,3S,5R)-2-(((6-(5-fluoro-4-methylpyrimidin-2-yl)bicyclo[4.1.0]heptan-3-yl)oxy)methyl)-5-methyl-3-(methylsulfonamido)pyrrolidine-1-carboxylate]
[1]
  Emax: 74.5%

## COC(=O)N1[C@H](C)C[C@H](NS(C)(=O)=O)[C@@H]1COC1CCC2(c3ccccc3)CC2C1 (single isomer, unassigned) [Example 1]
  IC50: 0.0206 µM
[1]
  Emax: 99.6%

## COC(=O)N1[C@@H]2CCC[C@@H]2[C@H](NS(C)(=O)=O)[C@@H]1COC1CCC2(c3ncccn3)CC2C1 (stereo partly drawn) [Example 175, methyl (2R,3S,3aS,6aR)-3-(methylsulfonamido)-2-(((6-(pyrimidin-2-yl)bicyclo[4.1.0]heptan-3-yl)oxy)methyl)hexahydrocyclopenta[b]pyrrole-1(2H)-carboxylate]
[1]
  Emax: 99.9%

## COC(=O)N1[C@H](C)C[C@H](NS(C)(=O)=O)[C@@H]1COC1CCC2(c3ncc(C#N)cn3)CC2C1 (mixture of isomers) [Example 188, methyl (2R,3S,5R)-2-(((6-(5-cyanopyrimidin-2-yl)bicyclo[4.1.0]heptan-3-yl)oxy)methyl)-5-methyl-3-(methylsulfonamido)pyrrolidine-1-carboxylate]
  IC50: 0.195 µM
[1]
  Emax: 96.9%

## CCS(=O)(=O)N[C@H]1C[C@@H](C(F)F)N(C(=O)OC)[C@H]1CO[C@H]1CC[C@@]2(c3ncc(Cl)cn3)C[C@H]2C1 (single isomer, unassigned) [Example 114]
  IC50: 0.0014 µM
[1]
  Emax: 98.6%

## COC(=O)N1[C@H](C)C[C@H](NS(C)(=O)=O)[C@@H]1COC1CCC2(c3ncccn3)CC2C1 (single isomer, unassigned) [Example 16]
  IC50: 0.0164 µM
[2]
  Emax (%): 102.2%

## COC(=O)N1[C@H](C)C[C@H](NS(=O)(=O)C(F)(F)F)[C@@H]1CO[C@H]1CC[C@@]2(c3ncc(F)cn3)C[C@H]2C1 [Example 31, methyl (2R,3S,5R)-2-((((1S,3S,6R)-6-(5-fluoropyrimidin-2-yl)bicyclo[4.1.0]heptan-3-yl)oxy)methyl)-5-methyl-3-((trifluoromethyl)sulfonamido)pyrrolidine-1-carboxylate]
[1]
  Emax: 101%

## COC(=O)N1[C@H](C)C[C@H](NS(C)(=O)=O)[C@@H]1CO[C@H]1CC[C@@]2(c3ncc(F)cn3)C[C@H]2C1 [Example 137, methyl (2R,3S,5R)-2-((((1S,3S,6R)-6-(5-fluoropyrimidin-2-yl)bicyclo[4.1.0]heptan-3-yl)oxy)methyl)-5-methyl-3-(methylsulfonamido)pyrrolidine-1-carboxylate]
[1]
  Emax: 101%

## CC(C)OC(=O)N1[C@H](C)C[C@H](NS(=O)(=O)C(F)F)[C@@H]1COC1CCC2(c3ncc(F)cn3)CC2C1 (single isomer, unassigned) [Example 92]
  IC50: 0.775 µM
[2]
  Emax (%): 73.2%

## COC(=O)N1[C@H](C)C[C@H](NS(=O)(=O)CF)[C@@H]1CO[C@H]1CC[C@@]2(c3ncc(Cl)cn3)C[C@H]2C1 [Example 79, methyl (2R,3S,5R)-2-((((1S,3S,6R)-6-(5-chloropyrimidin-2-yl)bicyclo[4.1.0]heptan-3-yl)oxy)methyl)-3-((fluoromethyl)sulfonamido)-5-methylpyrrolidine-1-carboxylate]
  IC50: 0.00086 µM
[1]
  Emax: 103%

## COC(=O)N1[C@H](C)C[C@H](NS(=O)(=O)N(C)C)[C@@H]1COC1CCC2(c3cnccn3)CC2C1 (stereo partly drawn) [Example 13, methyl (2R,3S,5R)-3-((N,N-dimethylsulfamoyl)amino)-5-methyl-2-(((6-(pyrazin-2-yl)bicyclo[4.1.0]heptan-3-yl)oxy)methyl)pyrrolidine-1-carboxylate]
[2]
  Emax (%): 82.0%

## COC(=O)N1CC[C@H](NS(C)(=O)=O)[C@@H]1COC1CCC2(c3ncccn3)CC2C1 (stereo partly drawn) [Example 185, methyl (2R,3S)-3-(methylsulfonamido)-2-(((6-(pyrimidin-2-yl)bicyclo[4.1.0]heptan-3-yl)oxy)methyl)pyrrolidine-1-carboxylate]
[1]
  Emax: 94.6%

## COC(=O)N1[C@H](C)C[C@H](NS(=O)(=O)C(C)C)[C@@H]1CO[C@@H]1CC[C@]2(c3ncc(F)cn3)C[C@@H]2C1 [Example 46, methyl (2R,3S,5R)-2-((((1R,3R,6S)-6-(5-fluoropyrimidin-2-yl)bicyclo[4.1.0]heptan-3-yl)oxy)methyl)-5-methyl-3-((1-methylethyl)sulfonamido)pyrrolidine-1-carboxylate]
[1]
  Emax: 100%

## CC(OC(=O)N1[C@H](C)C[C@H](NS(C)(=O)=O)[C@@H]1CO[C@H]1CC[C@@]2(c3ncc(F)cn3)C[C@H]2C1)C(F)F (stereo partly drawn) [Example 63, 1,1-Difluoropropan-2-yl (2R,3S,5R)-2-((((1S,3S,6R)-6-(5-fluoropyrimidin-2-yl)bicyclo[4.1.0]heptan-3-yl)oxy)methyl)-5-methyl-3-(methylsulfonamido)pyrrolidine-1-carboxylate]
[1]
  Emax: 104%

## COC(=O)N1[C@H](C)C[C@H](NS(=O)(=O)N(C)C)[C@@H]1CO[C@@H]1CC[C@]2(c3ncc(F)cn3)C[C@@H]2C1 (single isomer, unassigned) [Example 165]
  IC50: 0.0039 µM
[1]
  Emax: 101%
